The record followed here is patent publication US20100004238A1, “FUSED HETEROCYCLIC COMPOUND” (TAKEDA PHARMACEUTICAL COMPANY LIMITED, priority 2006, published 2010).

In assay [1] the test system is human breast cancer cell BT-474. Nature of the assay: Inhibitory action on breast cancer cell BT-474 proliferation in vitro. The assay is classed as cell-based. The following applies: 120 h, BT-474 cells, cultured for 5 days with compound, SRB protein content. The protocol: A suspension of human breast cancer cell BT-474 (100 μl (6,000 cells)) were plated in a 96-well microplate and cultured in an incubator (37° C., 5% carbon dioxide). On the following day, 100 μl of a solution of each test compound previously diluted serially in 2-fold, was added, and the cells were cultured for 5 days. After the culture medium containing the test compound was removed, the cells were washed and fixed with 50% trichloroacetic acid, after which a 0.4% (w/v) SRB dye solution (dissolved in 1% acetic acid) was added to stain as well as fix the cell protein (Skehan et al., Journal of the National Cancer Institute, Vol. 82, pp. 1107-1112, 1990). After washing with a 1% acetic acid solution, 100 μl of extract solution (10 mM, Tris buffer) was added to extract the dye and the absorbance was measured at a wavelength of 550 nm to quantify the amount of cells as protein content. Taking as 100% the protein content for the control group, which received no test compound solution, the ratio of the residual protein content for each treatment group was determined, and the compound concentration required to achieve 50% suppression of the residual cell content relative to the control (IC50 value) was calculated.

Assay [2] concerns the target T1, EGFR intracellular domain (EGFR kinase) (Homo sapiens, UniProt P00533).
T1 construct: made in house; host or cells: SF-21 insect cells infected with recombinant baculovirus BAC-EGFR
Nature of the assay: Determination of EGFR kinase inhibitory activity. The following applies: compound at 1.0 μM, poly-Glu:Tyr (4:1) substrate, [γ-32P]ATP; for inhibition at 1 µM: read-out: inhibitory rate (%) at 1.0 μM. Type of assay: biochemical. The protocol:
Human EGFR gene was cloned by RT-PCR using total RNA prepared from A431 cells as a template. The primer used for RT-PCR was prepared in consideration of the information of nucleotide sequence (Genbank Accession No. X00588) of EGFR gene by adding a nucleotide sequence encoding DYKDDDD peptide and a restriction enzyme recognition sequence to a nucleotide sequence (corresponding to 2191-3819 of Genbank Accession No. X00588 as a base, 669-1210 amino acids of Genbank Accession No. NP_005219 as a protein) encoding the EGFR intracellular domain region such that the protein contains an N-terminal DYKDDDD peptide tag. The primer nucleotide sequence is shown below.
(§1) SF-21 cells were sown at 1×10^6 cells/mL in Sf-900II SFM medium (1 L, Invitrogen) containing 10% fetal bovine serum (trace), 50 mg/L gentamicin (Invitrogen) and 0.1% Pluronic F-68 (Invitrogen), and shaking culture was performed using a 2 L volume Erlenmeyer flask at 27° C., 100 rpm. After culturing for 24 hrs, recombinant baculovirus BAC-EGFR (13.4 mL) was added, and the mixture was further cultured for 3 days. The culture medium was centrifuged at 2,000 rpm for 5 min to give virus-infected cells. The infected cells were washed with a phosphate buffered saline (Invitrogen), centrifuged under the same conditions, and the cells were preserved at −80° C. The cryopreserved cells were thawed in ice, suspended in buffer A (50 mM Tris buffer (30 mL, pH 7.4) containing 20% glycerol, 0.15 M NaCl) supplemented with Complete Protease Inhibitor (Boehringer), and ruptured 3 times with a Polytron homogenizer (Kinematica) at 20,000 rpm for 30 sec. The ruptured solution was clarified by centrifugation at 40,000 rpm for 30 min, and filtered with a 0.45 μm filter. The filtrate was passed through a column packed with Anti-FLAG M2 Affinity Gel (4 mL, Sigma-Aldrich) at a flow rate of about 0.5 mL/min. The column was washed with buffer A, and eluted with buffer A containing 100 μg/mL of FLAG peptide. The eluent was concentrated with Vivaspin 20 (Vivascience) having a molecular weight cut off of 30K. The concentrate was purified by gel filtration using Hi Load 16/60 Superdex 200 pg (GE Healthcare Bioscience) equilibrated with buffer A. The fractions containing EGFR intracellular domain were collected and cryopreserved at −80° C.
(§2) EGFR kinase reaction was performed using a 96 well plate. As a buffer for kinase reaction, a buffer having a composition of 50 mM Tris-HCl (pH 7.5), 5 mM MnCl2, 2 mM dithiothreitol, 0.01% Tween-20 was used. The compound of the present invention was dissolved in dimethyl sulfoxide (DMSO), and diluted with the kinase reaction buffer so that DMSO concentration would be 0.1% during kinase reaction. This compound solution (10 μL) was mixed with a kinase reaction buffer (20 μL) containing EGFR intracellular domain (0.625 μg/mL) obtained in Experimental Example 2B and polypeptide substrate poly-Glu:Tyr (4:1) (Sigma Ltd., 12.5 μg/mL), and the mixture was stood at room temperature for 5 min. Then, a kinase reaction buffer (20 μL) containing 125 μM ATP and 45 μCi/mL [γ-^32P]ATP was added, and the kinase reaction was initiated with 50 μL of the final reaction mixture. A kinase reaction was performed at room temperature for 10 min, and the kinase reaction was quenched by addition of 20% TCA solution (50 μL). The mixture after completion of the reaction was stood at room temperature for 30 min, and acid insoluble fractions in the mixture after completion of the reaction were collected in a 96 well GF/C filter plate (PerkinElmer) using a cell harvester (PerkinElmer). Thereafter, the filter containing the acid insoluble fractions was washed with 3% phosphoric acid solution. After washing, the filter plate was dried at 45° C. for 60 min, and 25 μL of MicroScinti 0 (PerkinElmer) was added. The radioactivity was measured using TopCount (PerkinElmer).
EGFR kinase inhibitory rate (%) of the test compound was calculated by the following formula: […]

The target in assay [3] is T2, HER2 intracellular domain (HER2 kinase) (Homo sapiens, UniProt P04626).
T2 construct: made in house; host or cells: SF-21 insect cells infected with recombinant baculovirus BAC-HER2
Nature of the assay: Determination of HER2 kinase inhibitory activity. The assay is classed as biochemical. The following applies: compound at 1.0 μM, poly-Glu:Tyr (4:1) substrate, [γ-32P]ATP, read-out: inhibitory rate (%) at 1.0 μM. The protocol:
Human HER2 gene was cloned by RT-PCR using total RNA prepared from MCF7 cells as a template. The primer used for RT-PCR was prepared in consideration of the information of nucleotide sequence (Genbank Accession No. M11730) of HER2 gene by adding a nucleotide sequence encoding DYKDDDD peptide and a restriction enzyme recognition sequence to a nucleotide sequence (corresponding to 2176-3918 of Genbank Accession No. M11730 as a base, 676-1255 amino acids of Genbank Accession No. NP_004439 as a protein) encoding the HER2 intracellular domain region such that the protein contains an N-terminal DYKDDDD peptide tag. The primer nucleotide sequence is shown below.
as §1, with “hr,” for “hrs,”, “BAC-HER2” for “BAC-EGFR”, “HER2” for “EGFR”
as §2, with “HER2 kinase reaction” for “EGFR kinase reaction”, “buffer […] containing HER2” for “buffer (20 μL) containing EGFR”, “mL) containing HER2 intracellular domain” for “μL) containing EGFR intracellular domain”, “Experimental Example 1B and polypeptide” for “Experimental Example 2B and polypeptide”, “TopCount (PerkinElmer). HER2 kinase inhibitory rate (%) of the test compound was calculated by the following formula: […]” for “TopCount (PerkinElmer).”

T1 sequence (P00533 669-1210): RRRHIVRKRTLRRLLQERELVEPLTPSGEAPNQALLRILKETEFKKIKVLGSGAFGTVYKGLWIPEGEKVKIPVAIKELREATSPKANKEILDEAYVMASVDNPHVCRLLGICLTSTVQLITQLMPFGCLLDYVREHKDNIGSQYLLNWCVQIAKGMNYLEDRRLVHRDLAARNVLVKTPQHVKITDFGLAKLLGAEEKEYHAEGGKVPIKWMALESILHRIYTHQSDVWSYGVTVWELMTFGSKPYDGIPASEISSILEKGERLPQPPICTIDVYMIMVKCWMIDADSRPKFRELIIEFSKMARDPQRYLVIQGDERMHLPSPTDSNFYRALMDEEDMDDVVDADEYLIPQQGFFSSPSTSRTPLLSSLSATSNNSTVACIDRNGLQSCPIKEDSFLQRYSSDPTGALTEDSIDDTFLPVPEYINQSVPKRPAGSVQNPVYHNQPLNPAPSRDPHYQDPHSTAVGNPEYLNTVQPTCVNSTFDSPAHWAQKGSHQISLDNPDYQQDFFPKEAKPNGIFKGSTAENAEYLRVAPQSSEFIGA
T2 sequence (P04626 676-1255): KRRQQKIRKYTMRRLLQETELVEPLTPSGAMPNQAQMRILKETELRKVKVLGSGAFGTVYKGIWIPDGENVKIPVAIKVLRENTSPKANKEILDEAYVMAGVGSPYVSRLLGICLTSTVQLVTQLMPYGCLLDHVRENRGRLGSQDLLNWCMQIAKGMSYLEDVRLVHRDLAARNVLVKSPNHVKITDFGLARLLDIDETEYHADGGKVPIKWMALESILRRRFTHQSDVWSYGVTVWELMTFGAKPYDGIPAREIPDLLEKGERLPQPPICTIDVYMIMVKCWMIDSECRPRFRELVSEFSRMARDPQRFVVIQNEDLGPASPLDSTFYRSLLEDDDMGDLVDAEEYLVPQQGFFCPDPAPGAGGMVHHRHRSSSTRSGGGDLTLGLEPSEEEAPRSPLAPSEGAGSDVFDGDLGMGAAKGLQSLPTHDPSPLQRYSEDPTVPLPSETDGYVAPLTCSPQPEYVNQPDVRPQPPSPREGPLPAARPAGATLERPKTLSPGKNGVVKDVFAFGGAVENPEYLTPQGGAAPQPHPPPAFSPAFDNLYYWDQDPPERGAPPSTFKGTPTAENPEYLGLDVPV

As a reminder, the IC50 is the concentration that gives 50% inhibition. Take `CS(=O)(=O)CC(=O)NCCn1ccc2ncnc(Nc3ccc(Oc4cccc5c4CC(=O)N5)c(Cl)c3)c21` [Example 6, N-{2-[4-({3-chloro-4-[(2-oxo-2,3-dihydro-1H-indol-4-yl)oxy]phenyl}amino)-5H-pyrrolo[3,2-d]pyrimidin-5-yl]ethyl}-2-(methylsulfonyl)acetamide]: the IC50 in assay [1] is below 100 nM. Besides, in assay [2], the inhibition at 1 µM is 100%.

Consider `CN1C(=O)Cc2c(Oc3ccc(Nc4ncnc5ccn(CCO)c45)cc3Cl)cccc21` [Example 8, 4-(2-chloro-4-{[5-(2-hydroxyethyl)-5H-pyrrolo[3,2-d]pyrimidin-4-yl]amino}phenoxy)-1-methyl-1,3-dihydro-2H-indol-2-one], for which the IC50 in assay [1] was below 100 nM. The inhibition at 1 µM in assay [2] is 100%.

Take `OCCOCCn1ccc2ncnc(Nc3ccc(Oc4cccc5[nH]ccc45)c(Cl)c3)c21` [Example 16, 2-[2-(4-{[3-chloro-4-(1H-indol-4-yloxy)phenyl]amino}-5H-pyrrolo[3,2-d]pyrimidin-5-yl)ethoxy]ethanol]: the inhibition at 1 µM in assay [3] stood at 100%; in assay [2], 99%.

As for `Cn1ccc2ncnc(Nc3ccc(Oc4cccc5[nH]ccc45)c(Cl)c3)c21` [Example 22, N-[3-chloro-4-(1H-indol-4-yloxy)phenyl]-5-methyl-5H-pyrrolo[3,2-d]pyrimidin-4-amine], in assay [1], the IC50 is below 100 nM. In addition, the inhibition at 1 µM in assay [2] worked out at 98%.

Consider `CC(C)(CO)C(=O)NCCn1ccc2ncnc(Nc3ccc(Oc4ccc5ccsc5c4)c(Cl)c3)c21` [Example 53, N-[2-(4-{[4-(1-benzothiophen-6-yloxy)-3-chlorophenyl]amino}-5H-pyrrolo[3,2-d]pyrimidin-5-yl)ethyl]-3-hydroxy-2,2-dimethylpropanamide], for which the inhibition at 1 µM in assay [2] is 98%.

In the case of `CS(=O)(=O)CC(=O)NCCn1ccc2ncnc(Nc3ccc(Oc4ccc5ccsc5c4)c(Cl)c3)c21` [Example 60, N-[2-(4-{[4-(1-benzothiophen-6-yloxy)-3-chlorophenyl]amino}-5H-pyrrolo[3,2-d]pyrimidin-5-yl)ethyl]-2-(methylsulfonyl)acetamide], the inhibition at 1 µM in assay [2] was 99%.

As for `CC(=O)NCCn1ccc2ncnc(Nc3ccc(Oc4cccc5sccc45)c(Cl)c3)c21` [Example 99, N-[2-(4-{[4-(1-benzothiophen-4-yloxy)-3-chlorophenyl]amino}-5H-pyrrolo[3,2-d]pyrimidin-5-yl)ethyl]acetamide], in assay [2], the inhibition at 1 µM amounted to 98%.

Regarding `CC(=O)NCCn1ccc2ncnc(Nc3ccc(Oc4cccc5sccc45)c(Cl)c3)c21` [Example 119, N-[2-(4-{[4-(1-benzothiophen-4-yloxy)-3-chlorophenyl]amino}-5H-pyrrolo[3,2-d]pyrimidin-5-yl)ethyl]acetamide methanesulfonate], the “inhibitory rate (%) at 1.0 μM” value in assay [2] (methanesulfonate, 1 µM) is 99%.
